# Measurements from US6737383B1, “Herbicidal oxadiazolidines” (priority 1999, dated 2004).
# Key:
# bedstraw = test: Test B pre/postemergence bedstraw; format: in vivo, Galium aparine
# How it was run: (§1)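 Test chemicals in a non-phytotoxic solvent mixture with surfactant were sprayed preemergence onto planted seeds and postemergence onto plants 2 to 18 cm tall (1- to 4-leaf stage). After twelve to sixteen days in a greenhouse, injury was visually rated against untreated controls from 0 (no effect) to 10 (complete control).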
# blackgrass = test: Test B pre/postemergence blackgrass; format: in vivo, Alopecurus myosuroides
# How it was run: as §1
# surinam grass = test: Test B pre/postemergence surinam grass; format: in vivo, Brachiaria decumbens
# How it was run: as §1
# corn = test: Test B pre/postemergence corn; format: in vivo, Zea mays
# How it was run: as §1
# crabgrass = test: Test B pre/postemergence crabgrass; format: in vivo, Digitaria sanguinalis
# How it was run: as §1
# giant foxtail = test: Test B pre/postemergence giant foxtail; format: in vivo, Setaria faberii
# How it was run: as §1
# morningglory = test: Test B pre/postemergence morningglory; format: in vivo, Ipomoea hederacea
# How it was run: as §1
# pigweed = test: Test B pre/postemergence pigweed; format: in vivo, Amaranthus retroflexus
# How it was run: as §1
# rape = test: Test B pre/postemergence rape; format: in vivo, Brassica napus
# How it was run: as §1
# soybean = test: Test B pre/postemergence soybean; format: in vivo, Glycine max
# How it was run: as §1
# velvetleaf = test: Test B pre/postemergence velvetleaf; format: in vivo, Abutilon theophrasti
# How it was run: as §1
# wheat = test: Test B pre/postemergence wheat; format: in vivo, Triticum aestivum
# How it was run: as §1
# wild oat = test: Test B pre/postemergence wild oat; format: in vivo, Avena fatua
# How it was run: as §1
# purple nutsedge = test: Test B pre/postemergence purple nutsedge; format: in vivo, Cyperus rotundus
# How it was run: as §1
# [1] = Postemergence, Rate 125 g/ha, scale of 0 to 10 where 0 is no effect and 10 is complete control
# [2] = Preemergence, Rate 62 g/ha, scale of 0 to 10 where 0 is no effect and 10 is complete control
# [3] = Preemergence, Rate 125 g/ha, 0 is no effect, 10 is complete control
# [4] = Preemergence, Rate 250 g/ha, scale 0 to 10, 0 is no effect, 10 is complete control
# [5] = Preemergence, Rate 500 g/ha, scale 0 to 10 (0 no effect, 10 complete control)
# [6] = Rate 62 g/ha, Postemergence, scale of 0 to 10 where 0 is no effect and 10 is complete control
# [7] = Rate 250 g/ha, Postemergence, scale 0 to 10, 0 is no effect, 10 is complete control
# [8] = Rate 500 g/ha, Postemergence, scale 0 to 10
smiles,measurement,setting,value
CC(C)N(C(=O)n1oc(=O)n([C@@H](C)c2ccccc2)c1=O)c1ccc(F)cc1 [Compound 167],Bedstraw plant response rating,bedstraw; [1],0
same,Bedstraw plant response rating,bedstraw; [2],0
same,Bedstraw plant response rating (0 to 10 scale),bedstraw; [3],0
same,Bedstraw plant response rating,bedstraw; [4],3
same,Bedstraw plant response rating,bedstraw; [5],5
same,Bedstraw plant response rating,bedstraw; [6],0
same,"Plant response rating, Bedstraw",bedstraw; [7],8
same,Blackgrass plant response rating,blackgrass; [1],0
same,Blackgrass plant response rating,blackgrass; [2],0
same,Blackgrass plant response rating (0 to 10 scale),blackgrass; [3],0
same,Blackgrass plant response rating,blackgrass; [4],3
same,Blackgrass plant response rating,blackgrass; [5],3
same,Blackgrass plant response rating,blackgrass; [6],0
same,"Plant response rating, Blackgrass",blackgrass; [7],5
same,Blackgrass plant response rating,blackgrass; [8],5
same,B. signalgrass plant response rating,surinam grass; [1],0
same,B. signalgrass plant response rating,surinam grass; [2],2
same,B. signalgrass plant response rating (0 to 10 scale),surinam grass; [3],5
same,B. signalgrass plant response rating,surinam grass; [4],5
same,B. signalgrass plant response rating,surinam grass; [5],8
same,B. signalgrass plant response rating,surinam grass; [6],0
same,"Plant response rating, B. signalgrass",surinam grass; [7],0
same,B. signalgrass plant response rating,"surinam grass; Rate 500 g/ha, Postemergence, scale 0 to 10, 0 no effect, 10 complete control",0
same,Corn plant response rating,corn; [1],0
same,Corn plant response rating,corn; [2],0
same,Corn plant response rating (0 to 10 scale),corn; [3],0
same,Corn plant response rating,corn; [4],0
same,Corn plant response rating,corn; [5],0
same,Corn plant response rating,corn; [6],0
same,"Plant response rating, Corn",corn; [7],0
same,Corn plant response rating,corn; [8],0
same,Crabgrass plant response rating,crabgrass; [1],3
same,Crabgrass plant response rating,crabgrass; [2],7
same,Crabgrass plant response rating (0 to 10 scale),crabgrass; [3],8
same,Crabgrass plant response rating,crabgrass; [4],10
same,Crabgrass plant response rating,crabgrass; [5],10
same,Crabgrass plant response rating,crabgrass; [6],0
same,"Plant response rating, Crabgrass",crabgrass; [7],9
same,Crabgrass plant response rating,crabgrass; [8],9
same,Giant foxtail plant response rating,giant foxtail; [1],0
same,Giant foxtail plant response rating,giant foxtail; [2],8
same,Giant foxtail plant response rating (0 to 10 scale),giant foxtail; [3],9
same,Giant foxtail plant response rating,giant foxtail; [4],10
same,Giant foxtail plant response rating,giant foxtail; [5],10
same,Giant foxtail plant response rating,giant foxtail; [6],0
same,"Plant response rating, Giant foxtail",giant foxtail; [7],0
same,Giant foxtail plant response rating,giant foxtail; [8],0
same,Morningglory plant response rating,morningglory; [1],5
same,Morningglory plant response rating,morningglory; [2],0
same,Morningglory plant response rating (0 to 10 scale),morningglory; [3],0
same,Morningglory plant response rating,morningglory; [4],0
same,Morningglory plant response rating,morningglory; [5],0
same,Morningglory plant response rating,morningglory; [6],2
same,"Plant response rating, Morningglory",morningglory; [7],5
same,Morningglory plant response rating,morningglory; [8],8
same,Redroot pigweed plant response rating,pigweed; [1],0
same,Redroot pigweed plant response rating,pigweed; [2],0
same,Redroot pigweed plant response rating (0 to 10 scale),pigweed; [3],6
same,Redroot pigweed plant response rating,pigweed; [4],8
same,Redroot pigweed plant response rating,pigweed; [5],8
same,Redroot pigweed plant response rating,pigweed; [6],0
same,"Plant response rating, Redroot pigweed",pigweed; [7],3
same,Redroot pigweed plant response rating,pigweed; [8],7
same,Rape plant response rating,rape; [1],0
same,Rape plant response rating,rape; [2],0
same,Rape plant response rating (0 to 10 scale),rape; [3],0
same,Rape plant response rating,rape; [4],0
same,Rape plant response rating,rape; [5],5
same,Rape plant response rating,rape; [6],0
same,"Plant response rating, Rape",rape; [7],0
same,Rape plant response rating,rape; [8],0
same,Soybean plant response rating,soybean; [1],3
same,Soybean plant response rating,soybean; [2],0
same,Soybean plant response rating (0 to 10 scale),soybean; [3],0
same,Soybean plant response rating,soybean; [4],0
same,Soybean plant response rating,soybean; [5],0
same,Soybean plant response rating,soybean; [6],2
same,"Plant response rating, Soybean",soybean; [7],3
same,Soybean plant response rating,soybean; [8],5
same,Velvetleaf plant response rating,velvetleaf; [2],0
same,Velvetleaf plant response rating (0 to 10 scale),velvetleaf; [3],0
same,Velvetleaf plant response rating,velvetleaf; [4],0
same,Velvetleaf plant response rating,velvetleaf; [5],3
same,"Plant response rating, Velvetleaf",velvetleaf; [7],0
same,Velvetleaf plant response rating,velvetleaf; [8],2
same,Wheat plant response rating,wheat; [2],0
same,Wheat plant response rating (0 to 10 scale),wheat; [3],0
same,Wheat plant response rating,wheat; [4],0
same,Wheat plant response rating,wheat; [5],0
same,"Plant response rating, Wheat",wheat; [7],0
same,Wheat plant response rating,wheat; [8],0
same,Wild oats plant response rating,wild oat; [2],0
same,Wild oats plant response rating (0 to 10 scale),wild oat; [3],0
same,Wild oats plant response rating,wild oat; [4],3
same,Wild oats plant response rating,wild oat; [5],6
same,"Plant response rating, Wild oats",wild oat; [7],0
same,Wild oats plant response rating,wild oat; [8],0
same,Nutsedge plant response rating,purple nutsedge; [1],0
same,Nutsedge plant response rating,purple nutsedge; [2],0
same,Nutsedge plant response rating (0 to 10 scale),purple nutsedge; [3],0
same,Nutsedge plant response rating,purple nutsedge; [4],0
same,Nutsedge plant response rating,purple nutsedge; [5],0
same,Nutsedge plant response rating,purple nutsedge; [6],0
same,"Plant response rating, Nutsedge",purple nutsedge; [7],0
same,Nutsedge plant response rating,purple nutsedge; [8],0
